This assay deals with IL-12. The experiment in a line: Human in vitro assay: inhibition of IL-12 production in IFNγ/LPS- or IFNγ/SAC-stimulated human PBMC or THP-1 cells (ELISA). Particulars: read-out: IC50 Range (representative in vitro IC50 data). The class given is cell-based. In short, it runs like this:
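Sandwich ELISA for IL-12 (p70, p40) on supernatants collected 18 h after stimulation gave IC50 values; MTS monitored viability. THP-1 cells: IFNγ 100 U/mL priming 22 h, SAC 0.025%. PBMC: IFNγ 30 U/mL for 22 h plus LPS 1 μg/mL, or IFNγ 100 U/mL plus SAC 0.01%. Final DMSO 0.25%.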
On the technique in general: In an ELISA, binding on a coated surface is turned into a signal by an enzyme label.

Structures are written as SMILES. Bounds are passed on as bounds.

One may read the IC50 as the concentration that inhibits the measured activity by half.

On to `COCCN(C)c1cc(C(=O)Nc2ccc3c(c2)OCO3)nc(N2CCOCC2)n1` [Compound 210, N-(benzo[d][1,3]dioxol-5-yl)-6-((2-methoxyethyl)(methyl)amino)-2-morpholinopyrimidine-4-carboxamide], for which the IC50 was ≥ 1000 nM.

For the molecule `Cc1cccc(NC(=O)c2cc(N3CCOCC3)nc(OCCc3ccccn3)n2)c1` [Compound 62, 6-Morpholin-4-yl-2-(2-pyridin-2-yl-ethoxy)-pyrimidine-4-carboxylic acid m-tolylamide], the IC50 is ≥ 1000 nM.

As to `CN(C)c1cccc(NC(=O)c2cc(N(C)CC(=O)N3CCCCC3)nc(N3CCOCC3)n2)c1` [Compound 116, 6-[Methyl-(2-oxo-2-piperidin-1-yl-ethyl)-amino]-2-morpholin-4-yl-pyrimidine-4-carboxylic acid (3-dimethylamino-phenyl)-amide], the IC50 was < 1000 nM.

In the case of `O=C(Nc1cccc(O)c1)C(=O)Nc1cc(OCCc2ccccn2)nc(N2CCOCC2)n1` [Compound 86, N-(3-Hydroxy-phenyl)-N′-[2-morpholin-4-yl-6-(2-pyridin-2-yl-ethoxy)-pyrimidin-4-yl]-oxalamide], the IC50 is ≥ 1000 nM.

On to `Cc1[nH]c2ccc(NC(=O)c3cc(NCC(N)=O)nc(N4CCOCC4)n3)cc2c1C` [Compound 104, 6-(Carbamoylmethyl-amino)-2-morpholin-4-yl-pyrimidine-4-carboxylic acid (2,3-dimethyl-1H-indol-5-yl)-amide], for which the half-maximal inhibitory concentration (IC50) was < 1000 nM.

Turning to `CN1C(=O)C(C)(C)c2cc(NC(=O)c3cc(OCCN4CCOCC4)nc(N4CCOCC4)n3)ccc21` [Compound 219, 2-morpholino-6-(2-morpholinoethoxy)-N-(1,3,3-trimethyl-2-oxoindolin-5-yl)pyrimidine-4-carboxamide], the 50% inhibitory concentration (IC50) is < 1000 nM.

With `Cc1cccc(OC(=O)Nc2cc(N3CCOCC3)nc(OCCc3ccccn3)n2)c1` [Compound 88, [6-Morpholin-4-yl-2-(2-pyridin-2-yl-ethoxy)-pyrimidin-4-yl]-carbamic acid m-tolyl ester], the IC50 is ≥ 1000 nM.

In the case of `CC1CCc2ccc(NC(=O)c3cc(OCCN4CCOCC4)nc(N4CCOCC4)n3)cc2N1C` (stereo not drawn) [Compound 321, 2-Morpholin-4-yl-6-(2-morpholin-4-yl-ethoxy)-pyrimidine-4-carboxylic acid (1,2-dimethyl-1,2,3,4-tetrahydro-quinolin-7-yl)-amide], the IC50 was ≥ 1000 nM.

On to `Cc1[nH]c2ccc(NC(=O)c3cc(OCCS(C)(=O)=O)nc(N4CCOCC4)n3)cc2c1C` [Compound 249, N-(2,3-dimethyl-1H-indol-5-yl)-6-(2-(methylsulfonyl)ethoxy)-2-morpholinopyrimidine-4-carboxamide], for which the IC50 was ≥ 1000 nM.

For `CCc1c(C)[nH]c2ccc(NC(=O)c3cc(OCCN4CCOC4=O)nc(N4CCOCC4)n3)cc12` [Compound 222, 2-Morpholin-4-yl-6-[2-(2-oxo-oxazolidin-3-yl)-ethoxy]-pyrimidine-4-carboxylic acid (3-ethyl-2-methyl-1H-indol-5-yl)-amide], the IC50 is < 1000 nM.

On to `Cn1c(=O)oc2cc(NC(=O)Nc3cc(OCCN4CCOCC4)nc(N4CCOCC4)n3)ccc21` [Compound 134, 1-(3-Methyl-2-oxo-2,3-dihydro-benzooxazol-6-yl)-3-[2-morpholin-4-yl-6-(2-morpholin-4-yl-ethoxy)-pyrimidin-4-yl]-urea], for which the IC50 is ≥ 1000 nM.

For `O=C(Nc1ccc2[nH]ccc2c1)c1cc(OCCc2ccccn2)nc(N2CCOCC2)n1` [Compound 4, 2-Morpholin-4-yl-6-(2-pyridin-2-yl-ethoxy)-pyrimidine-4-carboxylic acid (1H-indol-5-yl)-amide], the IC50 is < 1000 nM.

Turning to `O=C(Nc1ccc2c(c1)NCCC2)c1cc(OCCN2CCOCC2)nc(N2CCOCC2)n1` [Compound 296, 2-Morpholin-4-yl-6-(2-morpholin-4-yl-ethoxy)-pyrimidine-4-carboxylic acid (1,2,3,4-tetrahydro-quinolin-7-yl)-amide], the IC50 is ≥ 1000 nM.

Turning to `O=C1Cc2cc(NC(=O)c3cc(OCCN4CCOCC4)nc(N4CCOCC4)n3)ccc2N1` [Compound 197, 2-morpholino-6-(2-morpholinoethoxy)-N-(2-oxoindolin-5-yl)pyrimidine-4-carboxamide], the IC50 was ≥ 1000 nM.

For the molecule `O=C(Nc1ccc2cc[nH]c2c1)c1cc(OCCN2CCOCC2)nc(N2CCOCC2)n1` [Compound 275, 2-Morpholin-4-yl-6-(2-morpholin-4-yl-ethoxy)-pyrimidine-4-carboxylic acid (1H-indol-6-yl)-amide], the IC50 was < 1000 nM.

As for `COCCOc1cc(C(=O)Nc2ccc3[nH]c(C)c(C)c3c2)nc(N2CCOCC2)n1` [Compound 301, 6-(2-Methoxy-ethoxy)-2-morpholin-4-yl-pyrimidine-4-carboxylic acid (2,3-dimethyl-1H-indol-5-yl)-amide], the IC50 is < 1000 nM.

As to `COCCN(C)c1cc(C(=O)Nc2cccc(-c3nn(C)cc3Br)c2)nc(N2CCOCC2)n1` [Compound 235, 6-[(2-Methoxy-ethyl)-methyl-amino]-2-morpholin-4-yl-pyrimidine-4-carboxylic acid [3-(4-bromo-1-methyl-1H-pyrazol-3-yl)-phenyl]-amide], the IC50 is ≥ 1000 nM.

Take `O=C(Nc1ccc2[nH]c3c(c2c1)CCCC3)c1cc(N2CCC(O)CC2)cc(N2CCOCC2)n1` [Compound 185, 4-Hydroxy-6′-morpholin-4-yl-3,4,5,6-tetrahydro-2H-[1,4′]bipyridinyl-2′-carboxylic acid (6,7,8,9-tetrahydro-5H-carbazol-3-yl)-amide; compound with methanesulfonic acid]: the IC50 was < 1000 nM.

On to `COCCN(C)c1cc(C(=O)Nc2cc(C)ns2)nc(N2CCOCC2)n1` [Compound 239, 6-[(2-Methoxy-ethyl)-methyl-amino]-2-morpholin-4-yl-pyrimidine-4-carboxylic acid (3-methyl-isothiazol-5-yl)-amide], for which the IC50 is ≥ 1000 nM.

For the molecule `COCCN(C)c1cc(C(=O)Nc2ccc3c(c2)OCCO3)nc(N2CCOCC2)n1` [Compound 200, N-(2,3-dihydrobenzo[b][1,4]dioxin-6-yl)-6-((2-methoxyethyl)(methyl)amino)-2-morpholinopyrimidine-4-carboxamide], the IC50 was ≥ 1000 nM.

On to `CC(=O)N1CCN(c2cc(C(=O)Nc3ccc4[nH]cc(C)c4c3)nc(N3CCOCC3)n2)CC1` [Compound 261, 6-(4-acetylpiperazin-1-yl)-N-(3-methyl-1H-indol-5-yl)-2-morpholinopyrimidine-4-carboxamide], for which the IC50 is < 1000 nM.

As for `CCc1c[nH]c2ccc(NC(=O)c3cc(N4CCC(C)CC4)nc(N4CCOCC4)n3)cc12` [Compound 178, 6-(4-Methyl-piperidin-1-yl)-2-morpholin-4-yl-pyrimidine-4-carboxylic acid (3-ethyl-1H-indol-5-yl)-amide], the IC50 was < 1000 nM.

With `NS(=O)(=O)c1cccc(NC(=O)c2cc(OCCN3CCOCC3)nc(N3CCOCC3)n2)c1` [Compound 50, 2-Morpholin-4-yl-6-(2-morpholin-4-yl-ethoxy)-pyrimidine-4-carboxylic acid (3-sulfamoyl-phenyl)-amide], the IC50 is ≥ 1000 nM.

Regarding `Cc1[nH]c2ccc(NC(=O)c3cc(N(C)C)nc(N4CCOCC4)n3)cc2c1C` [Compound 248, N-(2,3-dimethyl-1H-indol-5-yl)-6-(dimethylamino)-2-morpholino-pyrimidine-4-carboxamide], the IC50 is < 1000 nM.

Turning to `O=C(Nc1cc(OCCN2CCOCC2)nc(N2CCOCC2)n1)Nc1nc2ccc(Cl)cc2s1` [Compound 139, 1-(6-Chloro-benzothiazol-2-yl)-3-[2-morpholin-4-yl-6-(2-morpholin-4-yl-ethoxy)-pyrimidin-4-yl]-urea], the IC50 was < 1000 nM.

Take `O=C(Nc1cccc(-n2ccnc2)c1)Nc1cc(OCCN2CCOCC2)nc(N2CCOCC2)n1` [Compound 328, 1-(3-Imidazol-1-yl-phenyl)-3-[2-morpholin-4-yl-6-(2-morpholin-4-yl-ethoxy)-pyrimidin-4-yl]-urea]: the IC50 is ≥ 1000 nM.

`Cc1[nH]c2ccc(NC(=O)c3cc(OCCC#N)nc(N4CCOCC4)n3)cc2c1C` [Compound 250, 6-(2-cyanoethoxy)-N-(2,3-dimethyl-1H-indol-5-yl)-2-morpholinopyrimidine-4-carboxamide]: the IC50 is < 1000 nM.

For `CCCCN(CCCC)c1cc(C(=O)Nc2ccc3[nH]c(C)c(C)c3c2)nc(N2CCOCC2)n1` [Compound 92, 6-Dibutylamino-2-morpholin-4-yl-pyrimidine-4-carboxylic acid (2,3-dimethyl-1H-indol-5-yl)-amide], the IC50 is < 1000 nM.

On to `CCCCN(C)C(=O)CNc1cc(C(=O)Nc2ccc3[nH]c(C)c(C)c3c2)nc(N2CCOCC2)n1` [Compound 107, 6-{[(Butyl-methyl-carbamoyl)-methyl]-amino}-2-morpholin-4-yl-pyrimidine-4-carboxylic acid (2,3-dimethyl-1H-indol-5-yl)-amide], for which the IC50 is < 1000 nM.

In the case of `Cc1cccc(C(=O)Nc2nc(OCCc3ccccn3)cc(N3CCOCC3)n2)c1` [Compound 75, 3-Methyl-N-[4-morpholin-4-yl-6-(2-pyridin-2-yl-ethoxy)-pyrimidin-2-yl]-benzamide], the IC50 is ≥ 1000 nM.

As for `Cc1[nH]c2ccc(NC(=O)c3cc(OCC(C)(C)O)nc(N4CCOCC4)n3)cc2c1C` [Compound 314, 6-(2-Hydroxy-2-methyl-propoxy)-2-morpholin-4-yl-pyrimidine-4-carboxylic acid (2,3-dimethyl-1H-indol-5-yl)-amide], the IC50 was < 1000 nM.

Turning to `O=C1COc2ccc(NC(=O)c3cc(OCCN4CCOCC4)nc(N4CCOCC4)n3)cc2N1` [Compound 199, 2-morpholino-6-(2-morpholinoethoxy)-N-(3-oxo-3,4-dihydro-2H-benzo[b][1,4]oxazin-6-yl)pyrimidine-4-carboxamide], the IC50 was ≥ 1000 nM.

Turning to `O=C(Nc1ccnc(N2CCCC2)c1)c1cc(OCCN2CCOCC2)nc(N2CCOCC2)n1` [Compound 151, 2-Morpholin-4-yl-6-(2-morpholin-4-yl-ethoxy)-pyrimidine-4-carboxylic acid (2-pyrrolidin-1-yl-pyridin-4-yl)-amide], the IC50 is < 1000 nM.

The record behind these values is US20060223996A1, “IL-12 modulatory compounds” (Synta Pharmaceuticals Corp., priority 2004, published 2006).
